Laboratory results published in article PMC7825511, “Design Strategy for the EPR Tumor-Targeting of 1,2-Bis(sulfonyl)-1-alkylhydrazines” (Molecules, 2021).

Tested on: O-6 position of DNA guanine
Assay: not given
Parameters: method as in PMID 20654586
Details: relative to chloroethylating counterpart 90CE; cited from earlier work
For `CN(NS(C)(=O)=O)S(C)(=O)=O` [KS90, 1,2-bis(methylsulfonyl)-1-(methyl)hydrazine], the “molar yield of guanine O-6 alkylations relative to 90CE” value is given as 5–6 times.

Tested on: matching cell lines
Assay: not given
Details: cited from earlier work
In the case of `CS(=O)(=O)NN(CCCl)S(C)(=O)=O` [90CE, 1,2-bis(methylsulfonyl)-1-(2-chloroethyl)hydrazine], the “MGMT level up to which protection towards the agent is proportional to MGMT activity” value is given as ~ 10,000 MGMT molecules/cell.

Same assay, conditions: same matching cell lines with/without MGMT expression; cited from earlier work
In the case of `CS(=O)(=O)NN(CCCl)S(C)(=O)=O` [90CE, 1,2-bis(methylsulfonyl)-1-(2-chloroethyl)hydrazine], the “increase in the IC50 value resulting from MGMT expression” value is given as ~ 20 fold.
In the case of `O=NN(CCCl)C(=O)NCCCl` [bis-chloroethylnitrosourea (BCNU), bis-chloroethylnitrosourea], the “increase in the IC50 value resulting from MGMT expression” value is listed as 2 to 3 fold.

Tested on: not listed separately
Assay: Linker half-life determination by spectrophotometric proton release assay (spontaneous hydrolysis)
Format: physicochemical
Details: buffer; 37 °C, pH 7.4; low molecular weight 90CE prodrugs with different N-2 substituents; read-out: Half-life (h) 37°C pH 7.4 (spontaneous hydrolysis) (converted)
Experimental: Linker half-life determination. The hydrolytic half-lives of several proposed linker moieties were determined using the proton release assay. The results are given in (Figure 4), several possible linkers with suitably long half-live values (40–300 h) were identified.
Decomposition kinetics. The kinetics of decomposition of various compounds and intermediates under various conditions can be followed using a spectrophotometric proton release assay. This is the preferred method for relatively short-lived agents as the decomposition can be followed in real time. This method is also suitable for following the decomposition of much longer-lived agents, as long as the reaction vessel/cuvette is sealed to prevent changes in pH due to CO2 absorption/desorption, and the temperature is closely controlled.
In the case of `CC(=O)N(N(CCCl)S(C)(=O)=O)S(C)(=O)=O` [A], the half-life is reported as 42.9 ± 2.1 h.
`COC(=O)N(N(CCCl)S(C)(=O)=O)S(C)(=O)=O` [B] showed a half-life greater than 300 h.
Compound `CNC(=O)N(N(CCCl)S(C)(=O)=O)S(C)(=O)=O` [C] has a half-life of 1.17 ± 0.02 h.
Compound `CN(C)C(=O)N(N(CCCl)S(C)(=O)=O)S(C)(=O)=O` [D] has a half-life of 129 ± 9 h.
Compound `CCN(CC)C(=O)N(N(CCCl)S(C)(=O)=O)S(C)(=O)=O` [E] has a half-life of 10.3 ± 0.3 h.
Compound `CS(=O)(=O)N(CCCl)N(C(=O)N1CCCC1)S(C)(=O)=O` [F] has a half-life greater than 300 h.
Compound `CC1CCC(C)N1C(=O)N(N(CCCl)S(C)(=O)=O)S(C)(=O)=O` (stereo not shown) [G] has a half-life greater than 300 h.
`CS(=O)(=O)N(CCCl)N(C(=O)N1CCCCC1)S(C)(=O)=O` [H] showed a half-life of 16.2 ± 0.5 h.
In the case of `CS(=O)(=O)N(CCCl)N(C(=O)N1CCOCC1)S(C)(=O)=O` [I], the half-life is reported as greater than 300 h.
